Here are results for 6 molecules from patent publication US4459227A, “Para-hydroxyphenylhydrazines as in situ precursors of iminoquinones and quinones” (Duke University, priority 1981, dated 1984).

The structures appear in SMILES notation. “Also recorded” adds a separate entry of the source. Like-named read-outs stand apart in the source and are kept apart here.

In one data set the test system is blue-green algae. Conditions: cited from earlier work.
The subject of data set [1] is Leucine Aminopeptidase (LAP). Nature of the data set: Hydrolysis of Leu-CHP by LAP studied by absorption spectrophotometry. It counts as biochemical. As to conditions: pH 8.5, FIG. 7. How it is done: Leucine Aminopeptidase (LAP), type III-CP (Sigma) was stored at 0°-4° C. in 0.75M saturated […], 0.1M Tris and 0.005M MgCl2 (pH 8) and contained 210 U/ml. Prior to the hydrolysis experiment, LAP (50λ) was activated by incubating it in 0.025M MnCl2 (0.2 ml), 0.5M Tris.HCl buffer (pH 9.0, 0.2 ml) and demineralized and ultra-filtered H2 O (0.6 ml) for at least 2 hours at 37° C. To each sample test tube was added AA-CHP (1.5 mg) in 0.02M Tris HCl buffer (pH 9.0, 0.5 ml) so that the final concentration was 1 mg/ml AA-CHP. The hydrolysis reaction was allowed to proceed for up to 12 hours and then TLC's were performed by spotting the reaction solution (2-3 μl) on cellulose plates and developing them in Butanol (20 ml)/HAc(4ml)/Pyridine(13.3 ml)/H2 O (16 ml) solvent system. […]
In order to characterize the products of hydrolysis of AA-CHP's, the hydrolysis of Leu-CHP by LAP was studied by absorption spectrophotometry. […] However, by 22 minutes (not shown) the absorbance at 300 and 400 nm had diminished in intensity while the 350 maximum continued to increase, albeit at a slower rate. At pH 7.0 (FIG. 8B), the absorbance at 300 nm continued to slowly increase in intensity even up to 90 minutes after dissolving CHP-OEt (0.2 mg) in DMSO (0.02 ml) into 0.05M Phosphate buffer (3 ml). […]

The subject of data set [2] is L1210 murine leukemia cells. Kind of data set: Inhibition of 3H-thymidine incorporation into DNA. It counts as cell-based.
Source text: An L1210 murine leukemia cell line was maintained in mice (female DBA/2J strain from the Jackson Laboratory, Bar Harbor, Maine) by transferring every seven days via intraperitoneal (i.p.) injection of 10^5 cells. […] The frozen cells maintained their viability for over two years. For all in vitro and in vivo experiments only freshly harvested intraperitoneally grown L1210 cells were used.
A DBA/2J mouse bearing L1210 cells for 6 days after i.p. inoculation of 1×10^5 cells was sacrificed by cervical dislocation and, using sterile technique, the abdominal skin was incised and pinned back. Using two 10 ml syringes with 21 gauge needles, one being filled with cold phosphate buffer saline (PBS) (9 ml, pH 7.4) and in 3 ml increments, the solution was injected into the peritoneal cavity through one side and withdrawn with the other syringe through the other side. The light pink cell suspension was then centrifuged at 2000 rpm for 5 minutes and the supernatant was decanted. […] After 0, 2, 4, 5 or 6 hours preincubation, 3H-Thymidine (1 μl; 1 μC) was added and then the incubation was continued for another 1/2 hour. The cells were then killed and their proteins precipitated with 5% TCA. […] To each vial was then added more PPO/POPOP/Toluene cocktail (1.5 ml) and the samples were counted. […]
The target of data set [3] is T1, Leucine Aminopeptidase (LAP), type III-CP (Sus scrofa, UniProt P28839).
T1 sequence (P28839 33-519): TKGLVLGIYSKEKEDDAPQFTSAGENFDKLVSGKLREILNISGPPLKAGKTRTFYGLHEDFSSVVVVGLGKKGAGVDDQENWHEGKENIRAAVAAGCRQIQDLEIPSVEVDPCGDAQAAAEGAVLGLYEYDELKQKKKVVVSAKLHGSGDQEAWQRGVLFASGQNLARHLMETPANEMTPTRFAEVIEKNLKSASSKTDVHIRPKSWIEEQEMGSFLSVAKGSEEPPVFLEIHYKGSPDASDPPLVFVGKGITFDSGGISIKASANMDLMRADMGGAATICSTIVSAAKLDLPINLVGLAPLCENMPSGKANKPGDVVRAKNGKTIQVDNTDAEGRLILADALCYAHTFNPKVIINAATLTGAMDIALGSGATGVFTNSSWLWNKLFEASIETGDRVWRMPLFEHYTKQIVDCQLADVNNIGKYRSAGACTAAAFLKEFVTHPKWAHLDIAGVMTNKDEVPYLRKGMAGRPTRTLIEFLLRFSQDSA
Kind of data set: Leucine aminopeptidase in vitro hydrolysis (TLC). It is filed as biochemical. As to conditions: 1 mg/ml AA-CHP, pH 9.0, up to 12 hours. How it is done: Leucine Aminopeptidase (LAP), type III-CP (Sigma) was stored at 0°-4° C. in 0.75M saturated […], 0.1M Tris and 0.005M MgCl2 (pH 8) and contained 210 U/ml. Prior to the hydrolysis experiment, LAP (50λ) was activated by incubating it in 0.025M MnCl2 (0.2 ml), 0.5M Tris.HCl buffer (pH 9.0, 0.2 ml) and demineralized and ultra-filtered H2 O (0.6 ml) for at least 2 hours at 37° C. To each sample test tube was added AA-CHP (1.5 mg) in 0.02M Tris HCl buffer (pH 9.0, 0.5 ml) so that the final concentration was 1 mg/ml AA-CHP. […] They were dried and sprayed with 0.2% Ninhydrin in EtOH and the color was developed at 85° C. for 5 minutes. The in vitro hydrolysis of Leu-CHP by LAP was also concomitantly studied by scanning spectrophotometry at different times after the start of incubation with the enzyme. A blank reference cell containing only enzyme and buffer was used.

For the next data set, the system named is mice. How it is done: Cysteine hydrochloride was neutralized with 1N NaOH and diluted with PBS so that the final concentration was 30 mg/ml. In those groups that received only the test compounds, a single dose (up to 1000 mg/kg) was given i.p. and any toxic deaths were autopsied and hematoxylin and eosin sections obtained.
Data set [4] is described as follows: In vivo toxicity (LD50, survival, histology). The arrangement: species or system mice. Conditions: mouse, in vivo, ip, mice. How it is done: (§1) Female DBA/2J mice, 8 weeks old, were injected intraperitoneally with test compound solutions (X, XI, XII, XIII, […]) to give a final concentration of 30 mg/ml.
(§2) In those groups receiving both test compound and cysteine, cysteine (1000 mg/kg) was given i.p. both 1 hour prior to and 2 or 3 hours after i.p. injection of the test compound. In Table 3 are the results of these experiments.

In another data set the test system is Female DBA/2J mice. Kind of data set: In vivo toxicity (LD50, survival, histology). How it is done:
as §1, §2

The test system of a further data set is liver. As to conditions: cited from earlier work.
Another data set concerns fungi. Conditions: cited from earlier work.
A further data set has as its system phage (viral) infections. Conditions: tissue cultures, p-benzoquinone generated in situ; cited from earlier work.
The subject of the next data set is Salmonella typhosa. As to conditions: 1911; cited from earlier work.
Data set [5] is described as follows: Spectral study of rearrangement/reactions with nucleophiles, reducing and oxidizing agents. It counts as physicochemical. Conditions: for Final Maximum (nm): pH 8-9, ten-fold excess. How it is done: In order to characterize the products of hydrolysis of AA-CHP's, the hydrolysis of Leu-CHP by LAP was studied by absorption spectrophotometry. […] This was also true for the new maximum at 350 nm and for a second new "maximum" which appeared as a low, broad "peak" merging with 350 peak and centered at about 400 nm. However, by 22 minutes (not shown) the absorbance at 300 and 400 nm had diminished in intensity while the 350 maximum continued to increase, albeit at a slower rate. At pH 7.0 (FIG. 8B), the absorbance at 300 nm continued to slowly increase in intensity even up to 90 minutes after dissolving CHP-OEt (0.2 mg) in DMSO (0.02 ml) into 0.05M Phosphate buffer (3 ml). Furthermore, a second maximum at 350 nm developed but it remaind smaller in intensity than the 300 nm peak.
Table 2 summarizes the results of several separate experiments involving the reactions of CHP-OEt, CHA-OEt, pIQ-OEt and pBQ (0.5-1.0 mM) with various nucleophiles (lysine, 3-MPA) reducing agents (NaBH4, 3-MPA) and oxidizing agents (NaIO4, O2) in ten-fold molar excess in Tris-HCl buffer (0.05M, pH 9.0).
In these studies, CHP-OEt, CHA-OEt and pBQ* were all pure compounds, thus, their absorption could be unequivocably assigned, pIQ-OEt was generated by the autoxidation of CHA-OEt in solution and its presence was noted by the appearance of one absorbance maximum at 400 nm and the development of a distinct yellow color to a previously clear solution of CHA-OEt. […] On the other hand, there was a dissimilarity between the spectra of CHP-OEt and CHA-OEt. CHA-OEt was oxidized by O2 or NaIO4 to the pIQ-OEt with a λmax =400 nm whereas NaIO4 had no effect on the rate or nature of spectral change that occurred when . . .

Setting [6] is: Leu-CHP 1000 mg/kg i.p. with cysteine.

In the case of `O=C1C(Cl)=C(Cl)C(=O)c2ccccc21` [2,3-dichloro-1,4-naphthoquinone], the “inhibition of blue-green algae” value with blue-green algae was “inhibited”.

Consider `CC(C)C[C@H](N)C(=O)NN(CC(=O)O)c1ccc(O)cc1` [Leu-CHP, βN-(L-leucyl)-αN-(carboxymethyl)-p-hydroxy-phenylhydrazine], for which, in data set [1], the “new, more intense absorption maximum appearing during hydrolysis” value was 350 nm. Also, the “original absorption maximum (disappeared during hydrolysis)” value in data set [1] is on record as 300 nm. Further, the “inhibition of 3H-thymidine incorporation into DNA” value in data set [2] (no pre-incubation (simultaneous exposure), FIG. 12) was “no inhibition”. For the same molecule, the “inhibition of 3H-thymidine incorporation / DNA synthesis (in words)” value in [2] (with pre-incubation) was “degree of inhibition of ^3 H-thymidine incorporation also increased”. Besides, in data set [3], the “cleavage/hydrolysis by LAP” value is listed as “able to cleave; also recorded: demonstrated”. Besides, the deaths/total entry with mice (1000 mg/kg i.p., no cysteine) is “Nine of nine”; with mice (1000 mg/kg i.p., no cysteine, listed as Leu--CHP), 9/9; in the data set on mice (Leu-CHP 1000 mg/kg i.p. with cysteine 1000 mg/kg before and after) it was “one of three”; in the data set with mice (Leu-CHP 1000 mg/kg i.p. with cysteine 1000 mg/kg before and after, listed as Leu--CHP) it was 1/3. The “Time of Death” value was 72 h in the data set with mice (setting [6]); at most 8 h in the data set on mice (no cysteine, Leu-CHP 1000 mg/kg, Phe-CHP 600 mg/kg i.p.); under 8 h in the data set on mice (no cysteine, Leu-CHP 1000 mg/kg, Phe-CHP 600 mg/kg i.p., listed as Leu--CHP). For the same molecule, the “pulmonary congestion or edema, histology of mouse that died on Day 3” value in the data set with mice (setting [6]) is listed as “no evidence of pulmonary congestion or edema”. In the data set with mice (i.p., mice), this molecule displayed an LD100 of 1000 mg/kg. Besides, the LD50 in data set [4] was 750 to 1000 mg/kg. Also, the survivors/total in the data set with Female DBA/2J mice (600 mg/kg i.p.) was 5/5; with Female DBA/2J mice (750 mg/kg i.p.), 3/3; with Female DBA/2J mice (1000 mg/kg i.p.), 0/9. For the same molecule, the “acute renal tubular necrosis (in words)” value in the data set on Female DBA/2J mice (i.p., mice) is recorded as “early signs of ATN”. Also, the “microscopic examination of the heart” value with Female DBA/2J mice (i.p., mice) is “no evidence of a toxic insult”. Besides, the “pulmonary congestion and edema (in words)” value in the data set on Female DBA/2J mice (i.p., Phe-CHP 600, Leu-CHP 1000, CHP-OEt 550 mg/kg) was “moderate to severe”.

In the case of `CC(=O)N=C1C=CC(=O)C=C1` [N-acetyl-p-iminobenzoquinone], the “toxic effects in the liver” value in the data set on liver is reported as “responsible for the toxic effects in the liver”.

With `O=C1C(Cl)=C(Cl)C(=O)C(Cl)=C1Cl` [chloranil, 2,3,5,6-tetrachloro-1,4-benzoquinone], in the data set on fungi, the antifungal properties entry was “marked antifungal properties”.

On to `Oc1ccc(O)cc1` [p-benzohydroquinone], for which the “prevention of phage (viral) infections” value in the data set with phage (viral) infections was “prevent phage (viral) infections from proliferating”.

Turning to `O=C1C=CC(=O)C=C1` [pBQ, p-Benzoquinone, reference compound], the bactericidal activity result in the data set on Salmonella typhosa is “potent bactericidal substance”. The results for the “Final Maximum (nm)” value in data set [5] (compound added: 3-MPA) and in [5] (compound added: Lysine) were 300 nm and 350 nm, respectively. Also, the “Initial Maximum (nm)” value in data set [5] (pH 8-9) came out at 240 nm. Moreover, the “peak appearing only after several hours with 3-MPA” value in data set [5] (ten-fold excess 3-MPA, pH 9.0) was 350 nm. Also, the “initial peak with lysine (rapidly diminished)” value in data set [5] (ten-fold excess lysine, pH 9.0) is recorded as 300 nm.

By LD50 is commonly meant the dose at which mortality reaches 50%.
